Legend:
[1] = dynamic solubility test in buffer at pH 6.0 with stirring; format: physicochemical; details: phosphate buffer pH 6.0, stirring for 60 minutes
Protocol: 62.5 mg of the solid dispersion prepared in Example 3 (containing 12.5 mg of the API of palbociclib in proportion) and 12.5 mg of the API of palbociclib were weighed separately, placed into two 100 ml beakers, respectively, and marked with T1 and T2. 90 ml of phosphate buffer (pH 6.0) was added to the two beakers respectively and a magnetic stir bar was placed therein. The two beakers were placed on a magnetic stirrer separately. 1 ml of the solution was removed separately from each of the beakers at the time points of 5, 10, 20, 40, and 60 minutes and filtered through a 0.45 μm micro PES polyethersulfone filter membrane. The filtrate was analyzed by high performance liquid chromatography, the content of the API of palbociclib was determined and the dissolution percentage was calculated.

[2] = co-dissolution of API of palbociclib and acidic auxiliary material in a solvent; format: physicochemical; details: co-dissolved with pharmaceutically acceptable acidic auxiliary material; solvent e.g. water
From the text: The present invention also provides a method for the preparation of a solid dispersion, comprising: mixing palbociclib with an acidic auxiliary material; adding a solvent (including but not limited to water, ethanol, acetone and a mixture thereof, preferably water or a mixture thereof with other solvents, e.g. the mixture of water and ethanol, the mixture of water and acetone, etc.) for dissolving or dispersing; adding a hydrophilic high-molecular material, dissolving or dispersing evenly; and removing the solvent by heating, for example, evaporating the solvent to dry by vacuum drying or heating drying or freeze drying or other drying ways, in order to achieve the purpose of dispersing the drug in the high-molecular solid carrier to a high degree, so as to prepare the solid dispersion.
In the preparation of the solid dispersion of the present invention, the concentration of the API of palbociclib in the solvent (e.g., water) can be up to 50 mg/ml or more, thereby improving the preparation efficiency of the solid dispersion.

[3] = according to WO2005/005426; cited from earlier work

CC(=O)c1c(C)c2cnc(Nc3ccc(N4CCNCC4)cn3)nc2n(C2CCCC2)c1=O [API of palbociclib, palbociclib]
dynamic solubility (dissolution percentage) [1]: 58%
concentration of the API of palbociclib in the solvent [2]: ≥ 50000 µg/mL
solubility in water [3]: poor
